Measured values published in patent US4505893A, “Purified plasminogen activator, process for its production and thrombolytic composition containing it” (Asahi Kasei Kogyo Kabushiki Kaisha, priority 1982, dated 1985).
Square brackets hold non-standard residues; d marks the D form. Peptide text beside a SMILES is read from it. * marks the point of attachment. Sta = CC(C)C[C@H](N)[C@@H](O)CC(=O)O; Isovaleryl = CC(C)CC(=O)*

Columns and labels:
[1] = target: T1, substance of this invention (plasminogen activator) (Homo sapiens, UniProt P00750); experiment: biochemical
T1 construct: endogenous in cells

urokinase = urokinase (Homo sapiens, UniProt P00749); experiment: biochemical
plasminogen = experiment: Enhancement of activity with fibrin (plasminogen activation, Boc-Val-Leu-Lys-MCA); type: biochemical; settings: 5 U/ml (urokinase 5 IU/ml), 25° C. 1 hour, 10 μM aminomethylcoumarin = 100%
fibrin = experiment: Affinity to fibrin (incorporation into formed fibrin); type: binding; settings: 500 U/ml (urokinase 500 IU/ml); plasminogen-free fibrinogen + thrombin, 1 hour at room temperature; extracted with 2M ammonium thiocyanate
[2] = Hydrolysis activity on various organic substrates; type: biochemical; settings: 37° C. 15 minutes, 1 μM aminomethylcoumarin = 100%, substance 100 U/ml, urokinase 120 IU/ml

T1 sequence (P00750 36-562): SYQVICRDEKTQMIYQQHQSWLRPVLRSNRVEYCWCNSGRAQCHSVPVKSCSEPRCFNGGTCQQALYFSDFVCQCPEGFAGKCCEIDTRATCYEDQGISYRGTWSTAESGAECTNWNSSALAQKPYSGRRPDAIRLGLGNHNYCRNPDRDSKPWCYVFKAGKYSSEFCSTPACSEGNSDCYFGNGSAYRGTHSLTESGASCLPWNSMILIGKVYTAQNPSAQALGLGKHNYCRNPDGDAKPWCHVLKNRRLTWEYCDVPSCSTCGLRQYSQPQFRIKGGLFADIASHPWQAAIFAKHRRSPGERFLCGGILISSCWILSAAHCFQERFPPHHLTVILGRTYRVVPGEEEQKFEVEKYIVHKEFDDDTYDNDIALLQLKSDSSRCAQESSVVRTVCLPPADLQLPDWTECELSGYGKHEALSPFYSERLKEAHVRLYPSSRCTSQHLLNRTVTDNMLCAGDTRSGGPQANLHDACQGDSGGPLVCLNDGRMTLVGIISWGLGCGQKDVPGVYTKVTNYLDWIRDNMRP

## CC(C)C[C@H](NC(=O)[C@@H](NC(=O)N[C@@H](Cc1ccccc1)C(=O)O)[C@@H]1CCN=C(N)N1)C(=O)N[C@H](C=O)Cc1ccccc1 [Chymostatin]
[1]
  IC50: > 160 µM
urokinase
  IC50: > 160 µM

## CCOC(=O)c1ccc(OC(=O)CCCCCNC(=N)N)cc1 [FOY]
[1]
  IC50: 12.8 µM
urokinase
  IC50: 0.146 µM

## CC(=O)N[C@@H](CC(C)C)C(=O)N[C@@H](CC(C)C)C(=O)N[C@H](C=O)CCCNC(=N)N [Leupeptin]
[1]
  IC50: 47.5 µM
urokinase
  IC50: 80.7 µM

## CC(C)CC(=O)N[C@H](C(=O)N[C@H](C(=O)N[C@@H](CC(C)C)[C@@H](O)CC(=O)N[C@@H](C)C(=O)N[C@@H](CC(C)C)[C@@H](O)CC(=O)O)C(C)C)C(C)C [Pepstatin] (Isovaleryl-VV[Sta]A[Sta]-OH)
[1]
  IC50: > 100 µM
urokinase
  IC50: > 100 µM

## urokinase
plasminogen; fibrinogen added
  Hydrolysis Activity (%): 5.9%
plasminogen; fibrinogen not added
  Hydrolysis Activity (%): 28%
fibrin
  proportion of the substance incorporated in the fibrin: not incorporated in the fibrin at all
[2]; substrate Boc-Glu-Lys-Lys-MCA 0.1 mM
  Hydrolysis Activity (%): 2.82%
[2]; substrate Boc-Ileu-Glu-Gly-Arg-MCA 0.1 mM
  Hydrolysis Activity (%): 3.30%
[2]; substrate Boc-Phe-Ser-Arg-MCA 0.1 mM
  Hydrolysis Activity (%): 48.9%
[2]; substrate Glt-Gly-Arg-MCA 0.1 mM
  Hydrolysis Activity (%): 314%
[2]; substrate Pro-Phe-Arg-MCA 0.1 mM
  Hydrolysis Activity (%): 3.89%
[2]; substrate Z--Phe-Arg-MCA 0.1 mM
  Hydrolysis Activity (%): 2.15%
